Series [1] relates to ABL, KIT, PDGFRs, DDRs. As to conditions: read-out: IC50 (nM/L), one bound for ABL; cited from earlier work.
For series [2], the system named is DMM-induced OA. The series can be described thus: Systemic imatinib in DMM model of OA (Example 5). Particulars: 33 mg/kg/day or 100 mg/kg, orally twice-daily for 12 weeks starting one day after DMM surgery. Type of series: in vivo, mice.
Series [3] has as its system VEGFRs, PDGFRs, B-RAF, MEK, ERK, c-FMS. As to conditions: one bound for VEGFRs; cited from earlier work.
Series [4] has as its system FLT3, KIT, MET, RET, VEGFR2. As to conditions: one bound for FLT3, KIT; cited from earlier work.
Series [5] has as its system allergic rhinitis. As to conditions: phase II clinical trial for allergic rhinitis; cited from earlier work.
For series [6], the system named is allergic rhinorrhea. As to conditions: intranasal dosing; cited from earlier work.
Series [7] has as its system tie2, pdgfrs, ret, kit, B-RAF. As to conditions: one bound for tie2, pdgfrs; cited from earlier work.

These results are taken from patent US20170312282A1, “TYROSINE KINASE INHIBITOR FORMULATIONS FOR THE TREATMENT OF MAST CELL-MEDIATED INFLAMMATORY DISEASES AND METHODS OF USE THEREOF” (The Board of Trustees of the Leland Stanford Junior …, priority 2016, published 2017).

With `Cc1cn(-c2cc(NC(=O)c3ccc(C)c(Nc4nccc(-c5cccnc5)n4)c3)cc(C(F)(F)F)c2)cn1` [Nilotinib], the IC50 in series [1] was […].

In the case of `Cc1ccc(NC(=O)c2ccc(CN3CCN(C)CC3)cc2)cc1Nc1nccc(-c2cccnc2)n1` [Imatinib], in series [2], the “development of DMM-induced OA (histological scores of cartilage damage, synovitis and osteophyte formation)” value is on record as “prevented the development of DMM-induced OA”.

With `CNC(=O)c1cc(Oc2ccc(NC(=O)Nc3ccc(Cl)c(C(F)(F)F)c3)cc2)ccn1` [Sorafenib], in series [3], the IC50 is below 100 nM.

Turning to `COc1cc2nccc(Oc3ccc(NC(=O)C4(C(=O)Nc5ccc(F)cc5)CC4)cc3)c2cc1OC` [Cabozatinib], in series [4], the IC50 was below 15 nM.

`Oc1cccc(Nc2ncc(F)c(Nc3cccc(O)c3)n2)c1` [R112]: in series [5], the efficacy versus placebo result is listed as “lack of efficacy versus placebo”. Also, in series [6], the allergic rhinorrhea result is on record as “effectively improved allergic rhinorrhea” and the safety entry is on record as “safe”.

For `CNC(=O)c1cc(Oc2ccc(NC(=O)Nc3ccc(Cl)c(C(F)(F)F)c3)c(F)c2)ccn1` [Regorafenib], the IC50 in series [7] is […].
